# Experimental data as given in PubChem BioAssay (NCI).
#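 Tested at 5 concentrations; 48 h exposure; 96-well plates; endpoints linearly interpolated, else capped at highest concentration. TGI denotes the concentration required for complete inhibition of growth.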
# Tests used:
# Assay in all cases: inhibition of tumour cell growth, NCI panel, 48 h
# [1] = test system: M14 melanoma
# [2] = test system: RPMI-8226 leukemia
# [3] = test system: KM12 colon
# [4] = test system: HS 578T breast
# [5] = test system: PC-3 prostate
# [6] = test system: SNB-75 CNS
# [7] = test system: NCI/ADR-RES ovarian
# [8] = test system: HOP-62 NSCLC
# [9] = test system: MOLT-4 leukemia
# [10] = test system: SK-MEL-28 melanoma
# [11] = test system: MDA-MB-231 breast
# [12] = test system: OVCAR-3 ovarian
# [13] = test system: HL-60(TB) leukemia
# [14] = test system: T-47D breast
# [15] = test system: OVCAR-8 ovarian
# [16] = test system: LOX IMVI melanoma
# [17] = test system: A498 renal
# [18] = test system: SNB-19 CNS
# [19] = test system: HOP-92 NSCLC
SMILES,TGI [1] [µM],TGI [2] [µM],TGI [3] [µM],TGI [4] [µM],TGI [5] [µM],TGI [6] [µM],TGI [7] [µM],TGI [8] [µM],TGI [9] [µM],TGI [10] [µM],TGI [11] [µM],TGI [12] [µM],TGI [13] [µM],TGI [14] [µM],TGI [15] [µM],TGI [16] [µM],TGI [17] [µM],TGI [18] [µM],TGI [19] [µM]
C=C(Br)CN(C(C)=O)C1CCCCC1,> 100,> 100,> 100,> 100,> 100,> 100,> 100,> 100,> 100,> 100,> 100,> 100,> 100,> 100,> 100,> 100,> 100,> 100,–
O=c1c2cccnc2cc(-c2ccccc2)n1CCO,> 100,> 100,> 100,> 100,> 100,> 100,> 100,> 100,> 100,> 100,> 100,> 100,> 100,> 100,> 100,> 100,> 100,> 100,–
O=C(CCc1ccc(O)cc1)NCCc1cccc(OCc2ccccc2)c1,36.2,–,83,> 100,88.4,–,> 100,> 100,48.4,63.2,> 100,35.1,50,67.7,> 100,30.4,> 100,> 100,70.9
CCCCCCCCC/C=C1\CC(CO)(COC(=O)C2CCCCC2)OC1=O (stereo not drawn),55.9,–,38.9,41,40.4,32.9,38.1,27.9,57.6,30.5,44.8,33.4,–,51.7,29.2,24,50.6,40.9,22.2
Cc1cccc(C)c1NC(=S)NC=C(C(N)=O)C(N)=O,> 100,> 100,> 100,> 100,> 100,> 100,> 100,> 100,> 100,> 100,> 100,> 100,–,> 100,> 100,> 100,> 100,> 100,> 100
O=C1CCC2CCC1C2 (stereo not drawn),> 100,> 100,> 100,> 100,> 100,> 100,> 100,> 100,> 100,> 100,> 100,> 100,> 100,> 100,> 100,> 100,> 100,> 100,–
N#Cc1sc2c(c1OC(=O)c1cccs1)c(=O)n(-c1ccccc1)c(=S)n2-c1ccccc1,38.2,49.6,43.6,43.6,64.6,> 100,50.1,49.5,62.3,61.6,45.1,> 100,47.5,34.1,81.6,54.2,–,> 100,–
O=C(O)c1ccc2c(c1)CC1(C2)Cc2ccccc2C1=O (stereo not drawn),> 100,> 100,> 100,> 100,> 100,> 100,> 100,> 100,> 100,> 100,> 100,> 100,> 100,> 100,> 100,> 100,–,> 100,> 100
CC(=O)N(CCc1ccccc1)C(C#N)c1ccc(OCCCCCCCCCCOc2ccc(C(C#N)N(CCc3ccccc3)C(C)=O)cc2)cc1 (stereo not drawn),> 100,–,> 100,56.1,> 100,38.3,> 100,–,> 100,> 100,48.5,> 100,> 100,> 100,> 100,> 100,92.6,88.1,43.5
COc1ccc(C2=C(N)c3c(OC)cccc3C2=O)cc1,> 100,> 100,> 100,> 100,> 100,> 100,> 100,> 100,> 100,> 100,> 100,> 100,> 100,> 100,> 100,> 100,> 100,> 100,–
COc1cc(C2c3cc4c(cc3OC(Nc3ccccc3)C2C)OCO4)cc(OC)c1OC (stereo not drawn),> 86.5,> 100,> 100,> 78.5,> 100,99.2,> 100,9.89,8.28,> 100,> 52.4,–,0.593,> 100,> 31.6,> 100,1.69,> 100,–
O=C1c2ccccc2-c2ccc(N=Nc3c(O)ccc4ccccc34)cc21,> 100,> 100,> 100,> 100,> 100,> 100,> 100,> 100,> 100,> 100,> 100,> 100,–,> 100,> 100,> 100,> 100,> 100,> 100
O=C(C1C(c2ccccc2)N1C(c1ccccc1)c1ccccc1)C1C(c2ccccc2)N1C(c1ccccc1)c1ccccc1 (stereo not drawn),> 100,10.9,72.8,46.3,53.7,> 100,> 100,> 100,33.4,36.1,45.4,–,12,> 100,> 100,–,–,> 100,–
COC(=O)c1ccccc1/C=C1\Cc2cc(C)cc(C)c2C1=O,–,> 100,> 100,> 100,> 100,> 100,–,> 100,> 100,> 100,> 100,> 100,> 100,> 100,> 100,> 100,> 100,> 100,–
N#CC(Nc1ccccc1)c1ccc(C(C#N)Nc2ccccc2)cc1 (stereo not drawn),> 100,–,> 100,> 100,> 100,–,> 100,–,> 100,> 100,> 100,> 100,34.3,> 100,> 100,> 100,> 100,> 100,> 100
Cc1ccc(S(=O)(=O)NC2C(=O)c3ccccc3C(=O)C2n2cnc3ccccc32)cc1 (stereo not drawn),> 100,> 100,> 100,> 100,64.3,> 100,73.6,> 100,68.1,> 100,> 100,15.4,40.8,> 100,> 100,> 100,–,89.7,> 100
O=c1[nH]nc(Cc2ccccc2)n1/N=C/c1ccccc1Cl,–,> 100,> 100,> 100,> 100,–,> 100,–,> 100,–,> 100,> 100,–,> 100,> 100,> 100,> 100,> 100,> 100
COc1ccc2c(c1)CCc1[nH]c3ccccc3c1CCCC2,> 10,> 10,> 10,> 10,> 10,> 10,> 10,> 10,> 10,> 10,> 10,> 10,> 10,> 10,> 10,> 10,–,> 10,> 10
c1ccc(Nc2nnc(Cn3ccc4ccccc43)s2)cc1,> 100,> 100,> 100,> 100,> 100,82.8,> 100,> 100,> 100,> 100,> 100,> 100,–,> 100,> 100,> 100,> 100,> 100,> 100
Fc1ccccc1-c1nn2c(C34CC5CC(CC(C5)C3)C4)nnc2s1,> 100,> 100,–,> 100,> 100,> 100,> 100,> 100,> 100,> 100,> 100,> 100,–,> 100,> 100,> 100,> 100,> 100,> 100
COc1ccc2c(c1)N=C1CSC(c3cccc(Br)c3)N1C2 (stereo not drawn),36.2,29.7,36,96.7,38.4,38.5,58,56.2,31,> 100,50.6,–,29.6,> 100,> 100,50,–,78.8,53.2
C/C(=N/O)c1cccc(Nc2nc3ccc(Cl)cc3c3[nH]c4ccccc4c23)c1,3.54,3.52,3.79,7.09,4.7,3.36,6.26,6.99,5.97,5.25,9.32,4.65,6.78,3.5,7.77,5.73,–,12,–
Cc1ccc(SCC(CF)OCn2cc(F)c(=O)[nH]c2=O)cc1 (stereo not drawn),> 100,> 100,–,> 100,> 100,–,> 100,> 100,> 100,> 100,> 100,> 100,> 100,> 100,> 100,> 100,> 100,> 100,> 100
COc1cc(NP(=O)(Oc2ccccc2)Oc2ccccc2)ccc1Nc1c2ccccc2nc2c1[nH]c1ccccc12,7.02,–,> 100,98.1,> 89.7,5.7,20.9,2.8,0.204,48.2,28.6,4.82,–,12.7,–,> 100,14,> 100,3.8
NC1=NN(c2ccccc2)C2(O)c3ccncc3C3=NN(c4ccccc4)C(=O)C132 (stereo not drawn),> 100,> 100,> 100,> 100,> 100,> 100,> 100,–,> 100,> 100,> 100,> 100,> 100,> 100,> 100,> 100,> 100,> 100,> 100
NC(=O)C(c1ccccc1)N1OC2C(=O)N(c3cccc4ccccc34)C(=O)C2C1c1c2ccccc2c(Cl)c2ccccc12 (stereo not drawn),15.8,–,7.75,> 50,18.6,20.4,28.2,27.8,9.03,34.6,18.8,17.5,11.2,31.7,19.4,13.6,37.4,18.9,32
COc1cc(C2C3=C(COC3=O)Oc3cc4c(cc32)OCO4)ccc1OC(C)=O (stereo not drawn),> 100,> 100,23.8,0.686,> 100,0.585,> 100,> 100,98.7,> 100,27.1,–,0.907,> 100,> 56.4,> 100,> 30.3,> 100,–
